Results published in US9072800B2, “Hand sanitizer” (TRISTEL PLC, priority 2009, dated 2015).

Test: Flash point by Tag Closed Cup
Assay type: physicochemical
From the text: MMB also has the benefit over ethanol that it is substantially non-flammable. […] MMB is considered to be extremely safe, having no R and S phrases and Occupational Exposure Limit.

flash point: 68 °C
SMILES: COC(C)(C)CCO [MMB, 3-methoxy-3-methylbutan-1-ol]
